In patent US11897876B2, “Isoxazolidines as RIPK1 inhibitors and use thereof” (GENZYME CORPORATION, priority 2022, dated 2024):
Read-outs that look alike come from different tables or passages of the source.

Tested on: U937 cells
Experiment: Cellular assay in U937 cells, TNFα/zVAD.fmk-induced cell death (necroptosis), MTS readout
Type: cell-based
Conditions: Homo sapiens, U-937
Text: Cellular Assay in U937 Cells to Measure the Activity of RIPK1-Inhibitors on Cell Death (Necroptosis).
Upon TNF-Receptor I ligation, Ser/Thr kinase RIPK1 is recruited to a transient receptor complex I. Upon modification of RIPK1 which promotes activation of RIPK1, complex […] can form, that involves recruitment of RIPK3 and MLKL (mixed lineage-kinase domain-like protein) which then translocates from the cytosol to the plasma membrane to execute cell death (Cai, Z. et al, Nat. Cell Biol. (2014)16:55-65).
Cell death was quantified in 96 well plates by determination of the amount of live cell using a CellTiter 96 AQueous reagent (Promega), a calorimetric method to measure the amount of live cells by reducing tetrazolium compound [3-(4,5-dimethylthiazol-2-yl)-5-(3-carboxymethoxyphenyl)-2-(4-sulfophenyl)-2H-tetrazolium, inner salt; MTS] into formazan. Absorbance of formazan was read at 490 nm. The inhibitory activity of the test compound was quantified in a concentration response curve (CRC) experiment. Compounds were obtained as 10 mM stock solutions and were diluted 1 to 10 volumes with DMSO to yield a 1 mM solution. From this solution 2 μl were diluted with 998 μl growth medium. 100 μl of 2 μM compound solution was further diluted sequentially with a dilution factor of 2.5 by adding 150 μl growth medium. A total of 10 concentrations were tested ranging from 10 μM to 0.26 nM or from 1 μM to 0.07 nM.
U937 cells were cultured in RPM11640 Glutamax and 10% heat inactivated FBS. 50 μl cell suspension containing 1×10^6 cells/ml supplemented with 50 μM zVAD.fmk (Benzyloxycarbonyl-Val-Ala-Asp (OMe) fluoromethylketone) and 100 ng/ml recombinant human TNFα were dispensed in each well of a 96-well plate. 50 μl of compound dilutions (see above) were added and the cell suspension incubated overnight (18 to 24 hrs) at 37° C., 5% CO2 in a humidified atmosphere (95% rH). High (no compound) and low control (no TNFα, zVAD.fmk) were tested with 7 replicates; all compound concentrations were tested in duplicates on each experimental plate.
CellTiter 96 Aqueous reagent was mixed (100 μl PMS (phenazine methosulfate) solution/2 ml MTS (3-(4,5-[…])-5-(3-carboxymethoxyphenyl)-2-(4-sulfophenyl)-2H-tetrazolium, inner salt) solution) and 20 μl were added per well. After 4 hrs incubation at 37° C. (5% CO2 95% rH) optical density was measured at 490 nm on a microplate reader (Tecan Infinite M1000).
The % inhibition is expressed as percentage of the maximal inhibition value obtained in the absence of TNFα/zVAD.fmc.

[1] = U937 cells, 100 ng/ml TNFα + 50 μM zVAD.fmk, overnight (18 to 24 hrs), read-out: U937 IC50
[2] = own data, read-out: IC50 (U937)

Row | Compound | IC50 [1] | IC50 [2] | IC50 (own data, read-out: pIC50 (U937) (converted))
1 | O=C(C1CCN(c2nccc(-c3ccccc3)n2)CC1)N1N=CCC1c1ccccc1 (centres unmarked) [Comparator Example A, (3-Phenyl-3,4-dihydropyrazol-2-yl)-[1-(4-phenylpyrimidin-2-yl)-4-piperidyl]methanone, reference compound] | 8 nM | 8 nM | 
2 | O=C(C1CCN(c2nccc(-c3ccccc3)n2)CC1)N1OCC[C@H]1c1ccccc1 [Comparator Example B, [(3S)-3-Phenylisoxazolidin-2-yl]-[1-(4-phenylpyrimidin-2-yl)-4-piperidyl]methanone, reference compound] | 9.4 nM | 9 nM | 
3 | Cc1nnc(-c2cc(N3CCC(C(=O)N4N=CC[C@H]4c4ccccc4)CC3)ncn2)o1 [Comparator Example C, [1-[6-(5-Methyl-1,3,4-oxadiazol-2-yl)pyrimidin-4-yl]-4-piperidyl]-[(3S)-3-phenyl-3,4-dihydropyrazol-2-yl]methanone, reference compound] | 59 nM |  | 59 nM
4 | Cc1nnc(-c2cc(N3CCC(C(=O)N4OCC[C@H]4c4ccccc4)CC3)ncn2)o1 [Comparator Example D, [1-[6-(5-Methyl-1,3,4-oxadiazol-2-yl)pyrimidin-4-yl]-4-piperidyl]-[(3S)-3-phenylisoxazolidin-2-yl]methanone, reference compound] | 92 nM | 92 nM | 
5 | Cc1nnc(-c2cc(N3CCC(C(=O)N4OCC[C@H]4c4cc(F)cc(C#N)c4)CC3)ncn2)o1 [Comparator Example E, 3-Fluoro-5-[(3S)-2-[1-[6-(5-methyl-1,3,4-oxadiazol-2-yl)pyrimidin-4-yl]piperidine-4-carbonyl]isoxazolidin-3-yl]benzonitrile, reference compound] | 197 nM | 197 nM | 
6 | Cc1nccn1-c1cc(N2CCC(C(=O)N3OCC[C@H]3c3cc(F)cc(C#N)c3)CC2)ncn1 [Example 1, 3-Fluoro-5-[(3S)-2-[1-[6-(2-methylimidazol-1-yl)pyrimidin-4-yl]piperidine-4-carbonyl]isoxazolidin-3-yl]benzonitrile] | 5.9 nM |  | 
7 | Cc1c(F)cc([C@@H]2CCON2C(=O)C2CCN(c3cc(-n4ccnc4C)ncn3)CC2)cc1C#N [Example 2, 3-Fluoro-2-methyl-5-[(3S)-2-[1-[6-(2-methylimidazol-1-yl)pyrimidin-4-yl]piperidine-4-carbonyl]isoxazolidin-3-yl]benzonitrile] | 3.8 nM |  | 
8 | Cn1nccc1-c1cc(N2CCC(C(=O)N3OCC[C@H]3c3cc(F)cc(C#N)c3)CC2)ncn1 [Example 3, 3-Fluoro-5-[(3S)-2-[1-[6-(2-methylpyrazol-3-yl)pyrimidin-4-yl]piperidine-4-carbonyl]isoxazolidin-3-yl]benzonitrile] | 8.1 nM |  | 
9 | Cn1nccc1-c1cc(N2CCC(C(=O)N3OCC[C@H]3c3cc(F)cc(F)c3)CC2)ncn1 [Example 4, [(3S)-3-(3,5-Difluorophenyl)isoxazolidin-2-yl]-[1-[6-(2-methylpyrazol-3-yl)pyrimidin-4-yl]-4-piperidyl]methanone] | 5 nM |  | 
10 | Cn1nccc1-c1cc(N2CCC(C(=O)N3OCC[C@H]3c3cc(F)cc(Cl)c3)CC2)ncn1 [Example 5, [(3S)-3-(3-Chloro-5-fluoro-phenyl)isoxazolidin-2-yl]-[1-[6-(2-methylpyrazol-3-yl)pyrimidin-4-yl]-4-piperidyl]methanone] | 3 nM |  | 
11 | Cc1n[nH]cc1-c1cc(N2CCC(C(=O)N3OCC[C@H]3c3cc(F)cc(C#N)c3)CC2)ncn1 [Example 6, 3-Fluoro-5-[(3S)-2-[1-[6-(3-methyl-1H-pyrazol-4-yl)pyrimidin-4-yl]piperidine-4-carbonyl]isoxazolidin-3-yl]benzonitrile] | 11.7 nM |  | 
12 | Cc1nc(C2CC2)cn1-c1cc(N2CCC(C(=O)N3OCC[C@H]3c3cc(F)cc(C#N)c3)CC2)ncn1 [Example 7, 3-[(3S)-2-[1-[6-(4-Cyclopropyl-2-methyl-imidazol-1-yl)pyrimidin-4-yl]piperidine-4-carbonyl]isoxazolidin-3-yl]-5-fluoro-benzonitrile] | 3.6 nM |  | 
13 | Cc1c(F)cc([C@@H]2CCON2C(=O)C2CCN(c3cc(-n4cc(C5CC5)nc4C)ncn3)CC2)cc1C#N [Example 8, 5-[(3S)-2-[1-[6-(4-Cyclopropyl-2-methyl-imidazol-1-yl)pyrimidin-4-yl]piperidine-4-carbonyl]isoxazolidin-3-yl]-3-fluoro-2-methyl-benzonitrile] | 1 nM | 1 nM | 
14 | Cc1cc(-c2cc(N3CCC(C(=O)N4OCC[C@H]4c4cc(F)cc(C#N)c4)CC3)ncn2)n(C)n1 [Example 9, 3-[(3S)-2-[1-[6-(2,5-Dimethylpyrazol-3-yl)pyrimidin-4-yl]piperidine-4-carbonyl]isoxazolidin-3-yl]-5-fluoro-benzonitrile] | 15 nM |  | 
15 | Cc1ncn(-c2cc(N3CCC(C(=O)N4OCC[C@H]4c4cc(F)cc(C#N)c4)CC3)ncn2)n1 [Example 10, 3-Fluoro-5-[(3S)-2-[1-[6-(3-methyl-1,2,4-triazol-1-yl)pyrimidin-4-yl]piperidine-4-carbonyl]isoxazolidin-3-yl]benzonitrile] | 2 nM |  | 
16 | Cc1ncnn1-c1cc(N2CCC(C(=O)N3OCC[C@H]3c3cc(F)cc(C#N)c3)CC2)ncn1 [Example 11, 3-Fluoro-5-[(3S)-2-[1-[6-(5-methyl-1,2,4-triazol-1-yl)pyrimidin-4-yl]piperidine-4-carbonyl]isoxazolidin-3-yl]benzonitrile] | 9.3 nM |  | 
17 | Cn1nncc1-c1cc(N2CCC(C(=O)N3OCC[C@H]3c3cc(F)cc(C#N)c3)CC2)ncn1 [Example 12, 3-Fluoro-5-[(3S)-2-[1-[6-(3-methyltriazol-4-yl)pyrimidin-4-yl]piperidine-4-carbonyl]isoxazolidin-3-yl]benzonitrile] | 7 nM |  | 
18 | Cc1nccn1-c1ncnc(N2CCC(C(=O)N3OCC[C@H]3c3cc(F)cc(C#N)c3)CC2)c1F [Example 13, 3-Fluoro-5-[(3S)-2-[1-[5-fluoro-6-(2-methylimidazol-1-yl)pyrimidin-4-yl]piperidine-4-carbonyl]isoxazolidin-3-yl]benzonitrile] | 4.3 nM |  | 
19 | Cc1cnn(-c2ncnc(N3CCC(C(=O)N4OCC[C@H]4c4cc(F)c(C)c(C#N)c4)CC3)c2F)c1 [Example 14, 3-Fluoro-5-[(3S)-2-[1-[5-fluoro-6-(4-methylpyrazol-1-yl)pyrimidin-4-yl]piperidine-4-carbonyl]isoxazolidin-3-yl]-2-methyl-benzonitrile] | 3.4 nM |  | 
20 | Cn1nccc1-c1ncnc(N2CCC(C(=O)N3OCC[C@H]3c3cc(F)cc(F)c3)CC2)c1F [Example 15, [(3S)-3-(3,5-Difluorophenyl)isoxazolidin-2-yl]-[1-[5-fluoro-6-(2-methylpyrazol-3-yl)pyrimidin-4-yl]-4-piperidyl]methanone] | 0.4 nM |  | 
